Laboratory results: patent publication US10407395B2, “Benzimidazole compound and medical use thereof” (Sumitomo Dainippon Pharma Co., Ltd., priority 2015, dated 2019)
Like-named read-outs stand apart in the source and are kept apart here.

Biological target: human SCN9A (Nav 1.7) (Homo sapiens, UniProt Q15858)
Assay: Measurement of Na ion current (Nav 1.7) by automated patch clamp assay in cells stably-expressing human SCN9A
Assay type: cell-based
Details: read-out: Inhibitory rate (%) of Na ion current; for inhibition at 100 µM: compound concentration 100 μmol/L (footnoted examples)
Experimental: Measurement of Na Ion Current in Voltage-Dependent Na Channel Gene Expressed Cell Nav 1.7 current was measured by automated patch clamp assay using cells stably-expressing human SCN9A. Cells Stably-expressing Human SCN9A Tetracycline-induced cells stably-expressing SCN9A were obtained from ChanTest Corporation. […] Next day, the Na ion current was measured by automated patch clamp assay. Electrophysiologic Measurement of Na Ion Current The Na ion current was measured by automated patch clamp assay using the following extracellular solution and intracellular solution. […] The control of the stimulating pulse and the data acquisition were carried out using EPC10 amplifier and Patch Master Software (HEKA). Data were sampled at 10 kHz, and low-pass filtered at 3 kHz. All the measurements were carried out at room temperature. […] The inhibitory rate of the Na ion current by the test compounds was calculated according to the following calculating formula with the peak current value generated by the depolarizing pulse. […] The inhibitory rate of Na ion current by each Example Compound was evaluated.

[1] = compound concentration 10 μmol/L, holding potential inactivating 50% Nav 1.7 channel (around −60 mV)
[2] = holding potential inactivating 50% Nav 1.7 channel (around −60 mV)

Chain of human SCN9A (Nav 1.7) (Q15858 whole entry): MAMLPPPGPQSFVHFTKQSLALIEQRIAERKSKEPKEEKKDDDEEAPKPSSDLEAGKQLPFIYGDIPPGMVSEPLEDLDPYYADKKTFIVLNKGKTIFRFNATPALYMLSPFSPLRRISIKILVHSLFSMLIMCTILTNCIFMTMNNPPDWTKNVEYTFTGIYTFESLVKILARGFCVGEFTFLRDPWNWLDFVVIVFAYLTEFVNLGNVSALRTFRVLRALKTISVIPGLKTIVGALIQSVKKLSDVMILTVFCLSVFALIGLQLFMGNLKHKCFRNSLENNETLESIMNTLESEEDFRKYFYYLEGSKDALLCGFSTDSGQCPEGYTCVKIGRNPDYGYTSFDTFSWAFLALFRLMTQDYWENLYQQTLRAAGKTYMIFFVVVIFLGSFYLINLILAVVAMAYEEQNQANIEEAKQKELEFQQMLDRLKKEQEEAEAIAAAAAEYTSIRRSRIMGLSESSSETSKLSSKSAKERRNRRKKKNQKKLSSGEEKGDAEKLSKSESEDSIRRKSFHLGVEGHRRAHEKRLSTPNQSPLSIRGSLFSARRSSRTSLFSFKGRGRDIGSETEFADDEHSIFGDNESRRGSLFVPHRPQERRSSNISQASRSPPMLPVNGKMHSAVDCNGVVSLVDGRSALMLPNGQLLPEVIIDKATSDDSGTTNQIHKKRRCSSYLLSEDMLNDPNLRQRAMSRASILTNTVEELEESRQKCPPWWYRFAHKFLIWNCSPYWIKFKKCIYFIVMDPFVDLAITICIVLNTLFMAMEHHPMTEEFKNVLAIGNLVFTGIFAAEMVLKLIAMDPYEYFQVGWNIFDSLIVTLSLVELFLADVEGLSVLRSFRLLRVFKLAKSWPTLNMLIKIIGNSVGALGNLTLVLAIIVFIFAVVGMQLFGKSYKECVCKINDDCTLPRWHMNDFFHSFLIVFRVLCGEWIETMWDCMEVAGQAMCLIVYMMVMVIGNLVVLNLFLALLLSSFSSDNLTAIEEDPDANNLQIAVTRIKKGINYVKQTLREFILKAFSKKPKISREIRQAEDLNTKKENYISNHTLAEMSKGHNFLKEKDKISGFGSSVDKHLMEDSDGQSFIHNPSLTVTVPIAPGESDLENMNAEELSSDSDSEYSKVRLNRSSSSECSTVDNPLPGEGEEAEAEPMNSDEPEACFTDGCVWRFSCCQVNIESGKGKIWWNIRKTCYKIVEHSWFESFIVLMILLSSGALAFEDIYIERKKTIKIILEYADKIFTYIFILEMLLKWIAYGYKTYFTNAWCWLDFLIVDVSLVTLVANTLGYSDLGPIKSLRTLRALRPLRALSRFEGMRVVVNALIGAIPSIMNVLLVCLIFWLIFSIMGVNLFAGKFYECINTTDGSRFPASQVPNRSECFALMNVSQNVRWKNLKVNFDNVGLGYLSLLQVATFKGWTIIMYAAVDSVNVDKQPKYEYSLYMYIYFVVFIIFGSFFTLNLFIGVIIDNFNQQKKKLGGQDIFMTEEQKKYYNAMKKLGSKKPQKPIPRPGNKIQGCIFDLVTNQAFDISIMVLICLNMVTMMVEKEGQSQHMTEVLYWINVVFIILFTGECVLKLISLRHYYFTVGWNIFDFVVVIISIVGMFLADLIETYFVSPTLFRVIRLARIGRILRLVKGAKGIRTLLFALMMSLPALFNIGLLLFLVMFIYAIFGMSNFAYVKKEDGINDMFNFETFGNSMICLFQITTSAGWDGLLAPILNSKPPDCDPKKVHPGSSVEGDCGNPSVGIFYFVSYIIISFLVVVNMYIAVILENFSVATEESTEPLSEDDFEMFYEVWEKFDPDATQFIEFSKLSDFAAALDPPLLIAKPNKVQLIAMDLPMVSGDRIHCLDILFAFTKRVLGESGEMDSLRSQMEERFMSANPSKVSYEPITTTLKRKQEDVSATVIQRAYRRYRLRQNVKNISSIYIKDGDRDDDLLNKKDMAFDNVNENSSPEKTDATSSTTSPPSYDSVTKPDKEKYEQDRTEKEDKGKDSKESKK

`CC(C)(O)Cn1cnc2cc(Oc3ncc(Cl)cc3F)ccc21` [Example 54, 1-{5-[(5-chloro-3-fluoropyridin-2-yl)oxy]-1H-benzimidazol-1-yl}-2-methylpropan-2-ol] was tested, and the inhibition at 10 µM [1] was 62%.

`OC1(Cn2cnc3ccc(-c4cccc(Cl)c4F)cc32)COC1` [Example 153] showed an inhibition at 10 µM [1] of 25%.

With `Cc1cc(-c2ccc3c(c2)ncn3CC2(O)COC2)cc(C(F)(F)F)c1` [Example 213] the inhibition at 10 µM [1] was 41%.

For `CC(C)(O)Cn1cnc2cc(-c3cccc(C(F)(F)F)c3)ccc21` [Example 194], the inhibition at 10 µM [1] was 43%.

For `CC(C)(O)Cn1cnc2ccc(-c3ccc(S(C)(=O)=O)cc3F)cc21` [Example 135], the inhibition at 10 µM [1] was 29%.

`CC(C)(O)Cn1cnc2ccc(-c3cccc(Cl)c3F)cc21` [Example 133] showed an inhibition at 10 µM [1] of 60%.

`CC(C)(O)Cn1cnc2cc(Oc3ncc(C(F)(F)F)cc3F)ccc21` [Example 53, 1-(5-{[3-fluoro-5-(trifluoromethyl)pyridin-2-yl]oxy}-1H-benzimidazol-1-yl)-2-methylpropan-2-ol] gave an inhibition at 10 µM [1] of 69%.

Work on `CC(C)(O)Cn1cnc2ccc(-c3ccc(F)cc3)cc21` [Example 5, 1-[6-(4-fluorophenyl)-1H-benzimidazol-1-yl]-2-methylpropan-2-ol] yielded an inhibition at 10 µM [1] of 39%.

In the case of `COc1cc(C(F)(F)F)ccc1-c1ccc2ncn(CCC(C)(C)O)c2c1` [Example 173, 4-{6-[2-methoxy-4-(trifluoromethyl)phenyl]-1H-benzimidazol-1-yl}-2-methylbutan-2-ol], the inhibition at 10 µM [1] is reported as 80%.

`OC1(Cn2cnc3cc(Oc4ccc(C(F)(F)F)cc4)ccc32)COC1` [Example 226] gave an inhibition at 10 µM [1] of 45%.

For `CC(C)(O)Cn1cnc2ccc(-c3ccc(C(F)(F)F)cc3Cl)cc21` [Example 136], the inhibition at 10 µM [1] was 70%.

`Cc1ccc(Cl)cc1-c1ccc2c(c1)ncn2CC1(O)COC1` [Example 209] gave an inhibition at 10 µM [1] of 48%.

With `CC(C)(O)Cn1cnc2ccc(Oc3ccc(C(F)(F)F)cc3)cc21` [Example 15, 2-methyl-1-{6-[4-(trifluoromethyl)phenoxy]-1H-benzimidazol-1-yl}propan-2-ol] the inhibition at 10 µM [1] was 57%.

`Cc1ccc(Oc2ccc3ncn(CCC(C)(C)O)c3c2)cc1` [Example 99] showed an inhibition at 10 µM [1] of 12%.

`CC(C)OCCn1cnc2ccc(Oc3ccc(F)cc3)cc21` [Example 3, 6-(4-fluorophenoxy)-1-[2-(propan-2-yloxy)ethyl]-1H-benzimidazole] was tested, and the inhibition at 10 µM [1] was 65%.

`OC1(Cn2cnc3ccc(Oc4ccc(Cl)cc4)cc32)COC1` [Example 91] was tested, and the inhibition at 10 µM [1] was 24%.

`CC(C)(O)Cn1cnc2ccc(Oc3ccc(CC(F)(F)F)cn3)cc21` [Example 60, 2-methyl-1-(6-{[5-(2,2,2-trifluoroethyl)pyridin-2-yl]oxy}-1H-benzimidazol-1-yl)propan-2-ol] gave an inhibition at 10 µM [1] of 52%.

Work on `C[C@@H](n1cnc2ccc(Oc3ccc(C(F)(F)F)cn3)cc21)C(C)(C)O` [Example 228, (3R)-2-methyl-3-(6-{[5-(trifluoromethyl)pyridin-2-yl]oxy}-1H-benzimidazol-1-yl)butan-2-ol] yielded an inhibition at 100 µM [2] of 66%.

With `Cc1c(-c2ccc3c(c2)ncn3CC2(O)COC2)cccc1C(F)(F)F` [Example 215] the inhibition at 10 µM [1] was 84%.

`Cc1ccc(Cl)cc1-c1ccc2ncn(CC3(O)COC3)c2c1` [Example 160] showed an inhibition at 10 µM [1] of 25%.

For `Cc1cc(Cl)ccc1-c1ccc2c(c1)ncn2CC(C)(C)O` [Example 187], the inhibition at 10 µM [1] was 45%.

With `CC(C)(O)Cn1cnc2cc(-c3ccc(Cl)cc3)ccc21` [Example 178] the inhibition at 10 µM [1] was 34%.

Molecule `CC(C)(O)Cn1cnc2ccc(Oc3ccc(C(F)(F)F)nc3)cc21` [Example 25, 2-methyl-1-(6-{[6-(trifluoromethyl)pyridin-3-yl]oxy}-1H-benzimidazol-1-yl)propan-2-ol] has an inhibition at 10 µM [1] of 72%.

In the case of `CC(C)(O)Cn1cnc2cc(Oc3cnc(C(F)(F)F)cn3)ccc21` [Example 51, 2-methyl-1-(5-{[5-(trifluoromethyl)pyrazin-2-yl]oxy}-1H-benzimidazol-1-yl)propan-2-ol], the inhibition at 10 µM [1] is reported as 44%.

In the case of `CC(C)(O)Cn1cnc2ccc(-c3ccc4ncccc4c3)cc21` [Example 145], the inhibition at 10 µM [1] is reported as 15%.

Work on `Cc1ccc(-c2ccc3ncn(CC(C)(C)O)c3c2)cn1` [Example 126] yielded an inhibition at 100 µM [2] of 7%.

In the case of `OC1(Cn2cnc3ccc(Oc4ccc(F)cc4Cl)cc32)COC1` [Example 110, 3-{[6-(2-chloro-4-fluorophenoxy)-1H-benzimidazol-1-yl]methyl}oxetan-3-ol], the inhibition at 10 µM [1] is reported as 58%.

With `Cc1ccc(-c2ccc3c(c2)ncn3CC(C)(C)O)cn1` [Example 183] the inhibition at 100 µM [2] was 30%.

With `CC(C)(O)Cn1cnc2cc(-c3cccc(OC(F)(F)F)c3)ccc21` [Example 198] the inhibition at 10 µM [1] was 58%.

For `CC(C)(CO)n1cnc2ccc(Oc3ccc(C(F)(F)F)cn3)cc21` [Example 116], the inhibition at 10 µM [1] was 33%.

Work on `OC1(Cn2cnc3ccc(-c4cccc(Cl)c4Cl)cc32)COC1` [Example 152] yielded an inhibition at 10 µM [1] of 38%.

`OC1(Cn2cnc3ccc(-c4ccc(C(F)(F)F)cc4F)cc32)COC1` [Example 149] was tested, and the inhibition at 10 µM [1] was 34%.

With `OC1(Cn2cnc3ccc(-c4ccc(F)c(Cl)c4)cc32)COC1` [Example 154] the inhibition at 10 µM [1] was 52%.

In the case of `CC(C)(O)CCn1cnc2ccc(Oc3ccc(F)cc3)cc21` [Example 100], the inhibition at 10 µM [1] is reported as 10%.

In the case of `CC(C)(O)Cn1cnc2ccc(-c3ccc(Cl)cc3F)cc21` [Example 130, 1-[6-(4-chloro-2-fluorophenyl)-1H-benzimidazol-1-yl]-2-methylpropan-2-ol], the inhibition at 10 µM [1] is reported as 48%.

Molecule `COc1cccc(-c2ccc3c(c2)ncn3CC2(O)COC2)c1Cl` [Example 216] has an inhibition at 10 µM [1] of 53%.

Work on `CC(C)(O)Cn1cnc2ccc(-c3ccccc3OC(F)(F)F)cc21` [Example 140] yielded an inhibition at 10 µM [1] of 24%.

With `CC(C)(O)Cn1cnc2ccc(-c3cccc(OC(F)(F)F)c3)cc21` [Example 141] the inhibition at 10 µM [1] was 53%.

With `FC(F)(F)c1ccc(-c2ccc3ncn(CC4CCCO4)c3c2)nc1` (stereo not drawn) [Example 8] the inhibition at 10 µM [1] was 32%.

`OC1(Cn2cnc3cc(-c4ccc(C(F)(F)F)cc4F)ccc32)COC1` [Example 203] was tested, and the inhibition at 10 µM [1] was 26%.

`CC(C)(O)Cn1cnc2cc(-c3cc(F)cc(Cl)c3)ccc21` [Example 200] gave an inhibition at 10 µM [1] of 52%.

`OC1(Cn2cnc3ccc(Oc4ccc5scnc5c4)cc32)COC1` [Example 114] gave an inhibition at 10 µM [1] of 26%.

`CC(C)(O)Cn1cnc2ccc(-c3ccc4ocnc4c3)cc21` [Example 147] gave an inhibition at 10 µM [1] of 15%.

Work on `Cc1cc(Cl)cc(-c2ccc3ncn(CC4(O)COC4)c3c2)c1` [Example 169] yielded an inhibition at 10 µM [1] of 46%.

`OC1(Cn2cnc3ccc(-c4cc(Cl)ccc4Cl)cc32)COC1` [Example 157] was tested, and the inhibition at 10 µM [1] was 51%.

In the case of `OC1(Cn2cnc3ccc(Oc4ccc(C(F)(F)F)cc4)cc32)COC1` [Example 93, 3-({6-[4-(trifluoromethyl)phenoxy]-1H-benzimidazol-1-yl}methyl)oxetan-3-ol], the inhibition at 10 µM [1] is reported as 42%.

Work on `O[C@H]1CC[C@H](n2cnc3ccc(Oc4ccc(C(F)(F)F)cn4)cc32)CC1` [Example 117] yielded an inhibition at 100 µM [2] of 44%.

In the case of `CC(C)(O)CCn1cnc2ccc(-c3ccc(C(F)(F)F)cc3)cc21` [Example 172], the inhibition at 10 µM [1] is reported as 64%.

With `CC(C)(O)Cn1cnc2cc(Oc3cccc(C(F)(F)F)n3)ccc21` [Example 43, 2-methyl-1-(5-{[6-(trifluoromethyl)pyridin-2-yl]oxy}-1H-benzimidazol-1-yl)propan-2-ol] the inhibition at 10 µM [1] was 20%.

`Cc1ccc(Oc2ccc3ncn(CC(C)(C)O)c3c2)cn1` [Example 24, 2-methyl-1-{6-[(6-methylpyridin-3-yl)oxy]-1H-benzimidazol-1-yl}propan-2-ol] showed an inhibition at 10 µM [1] of 56%.

In the case of `CC(C)(O)Cn1cnc2cc(-c3ccccc3Cl)ccc21` [Example 195], the inhibition at 10 µM [1] is reported as 31%.

In the case of `FC(F)(F)c1ccc(-c2ccc3ncn(CC4CCCO4)c3c2)cc1` (stereo not drawn) [Example 7, 1-(tetrahydrofuran-2-ylmethyl)-6-[4-(trifluoromethyl)phenyl]-1H-benzimidazole], the inhibition at 10 µM [1] is reported as 67%.

`OC1(Cn2cnc3ccc(-c4cccc(C(F)(F)F)c4Cl)cc32)COC1` [Example 168] was tested, and the inhibition at 10 µM [1] was 77%.

`Fc1ccc(Oc2ccc3ncn(CC4CCCO4)c3c2)cc1` (stereo not drawn) [Example 2, 6-(4-fluorophenoxy)-1-(tetrahydrofuran-2-ylmethyl)-1H-benzimidazole] was tested, and the inhibition at 10 µM [1] was 85%.

In the case of `OC1(Cn2cnc3ccc(Oc4ccc(CC(F)(F)F)cc4)cc32)COC1` [Example 105], the inhibition at 10 µM [1] is reported as 38%.

`OC1(Cn2cnc3cc(-c4cccc(C(F)(F)F)c4Cl)ccc32)COC1` [Example 217] gave an inhibition at 10 µM [1] of 60%.

Work on `CC(C)(O)Cn1cnc2cc(-c3ccc(N4CCOCC4)cc3)ccc21` [Example 177] yielded an inhibition at 10 µM [1] of 54%.

Work on `CC(C)(O)Cn1cnc2cc(-c3ccc(Cl)cc3C(F)(F)F)ccc21` [Example 191] yielded an inhibition at 10 µM [1] of 52%.

Work on `OC1(Cn2cnc3ccc(-c4ccc(C(F)(F)F)cc4Cl)cc32)COC1` [Example 150] yielded an inhibition at 10 µM [1] of 47%.

With `CC(C)(O)Cn1cnc2ccc(-c3ccoc3)cc21` [Example 146] the inhibition at 10 µM [1] was 17%.

Molecule `Cc1ccc(Oc2ccc3ncn(CC(C)(C)O)c3c2)cc1` [Example 14, 2-methyl-1-[6-(4-methylphenoxy)-1H-benzimidazol-1-yl]propan-2-ol] has an inhibition at 10 µM of 68%.

`CC(C)(O)Cn1cnc2cc(-c3ccc(Cl)cc3F)ccc21` [Example 188] gave an inhibition at 10 µM [1] of 51%.

In the case of `COc1cc(F)ccc1-c1ccc2c(c1)ncn2CC(C)(C)O` [Example 186], the inhibition at 10 µM [1] is reported as 22%.
